# Experimental data as given in patent US9987302B2, “Methods of treating DNA damage” (priority 2011, dated 2018).
# What was measured:
# U2OS-SCR reporter cells = assay: HR/SCR reporter assay (GFP-positive cells by flow cytometry and fluorescence microscopy); assay type: cell-based; settings: for number of GFP-positive cells (HR repair of DSB): U2OS-SCR cells transfected with SceI 24 hours, then treated 24 hours, CO 250 ppm; for CO-mediated HR (GFP-positive cells) under ATM/ATR blockade: inhibitor 20 μM 1 hour prior to CO 250 ppm for 24 hours
# From the text: To test this, the U20S cell line containing the HR/SCR (homologous recombination/sister chromatid recombination) reporter was used as previously described (12,13). I-SceI endonuclease was used to introduce a double strand break (DSB) within the reporter in U2OS cells. The efficiency of homologous recombination induced by I-SceI correlated with generation of wild type GFP by gene conversion.
# (§1) Many of the effects observed with HO-1 are mediated by one or more of its enzymatic products biliverdin or CO. Therefore, the role of biliverdin and CO was tested separately in HR during DSB and DNA repair. U2OS-SCR reporter cells after transfection with SceI for 24 hours were treated with CO 250 (ppm) for 24 hours. […] No effects of CO were observed on NHEJ-mediated DNA repair as measured by number of XHATM-resistant colonies.
# (§2) Lysates of PC3 and HEK cells were treated with CO (250 ppm) for 2′ to 1 h. […] Therefore, the two major DNA repair kinases, ATM and ATR, were examined to see if they are implicated in accelerated HR in the presence of CO or HO-1. […] U20S-SCR reporter cells were transfected with SceI for 24 hours and treated with CGK733 (20 μM) or DMSO for 1 hour prior treatment with CO (250 ppm) for 24 hours. U20S-SCR reporter cells were co-transfected with SceI for 24 hours and KU55933 (20 μM) or DMSO for 1 hour prior treatment with CO (250 ppm) was applied for following 24 hours. […] U20S-SCR reporter cells were co-transfected with SceI and HO-1 for 24 hours and CGK733 was applied for following 24 hours.
# (§3) U203 HR/SCR cells were maintained in the DMEM medium (Gibco, Invitrogen) containing 10% FBS and antibiotics. pPHW1 cells (NHEJ model) were maintained in the DMEM medium with 10% FBS and antibiotics. Mouse kidney fibroblasts were obtained from adult Hmox1^−/− and Hmox1^+/+ mice and culture between passages 4-7 in DMEM medium supplemented with 10% FBS and antibiotics. HEK293 were purchased from ATCC and were cultured following manufacturer's protocol. For CO in vitro studies, cells were exposed to 250 ppm CO, 5% CO2 in […] for 2 minutes to 24 hours. Cells were irradiated with 10 Gy and harvested at different time points after single exposure.
# HR/SCR reporter U20S cells were used as previously described. Briefly, GFP+ cells were analyzed 2 days postransfection by flow cytometry (FACScan, BD Biosciences) and fluorescence microscopy. Images of GFP-positive cells were captured of randomized fields using a Zeiss Apotome fluorescent microscope.
# pPHW1 cells (NHEJ model) = assay: NHEJ-mediated DNA repair (number of XHATM-resistant colonies); assay type: cell-based
# Method: as §1, §3
# [1] = test system: lung and intestine gene expression; assay: Gene expression in tissues of mice exposed to inhaled CO (real time PCR); assay type: in vivo
# Method: This is important given that the lung has such a high rate of cellular turnover. The increase in expression of these genes is associated with decreased senescence and extension of life span.
# Male C57Bl/6 mice were exposed to inhaled carbon monoxide at 250 parts per million (ppm) for 1 hour. […] Real time PCR for telomerase in lungs, and topoisomerase (responsible for unwinding of DNA) and p16 (cell cycle suppressor) in intestines was performed, and expression was compared to air-exposed controls (FIG. 10). Results represent mean±SD of at least 3 mice/group, * p<0.05.
# irradiated mice = assay: Radiation-induced model of DNA damage (lethal irradiation, 10 Gy); assay type: in vivo
# Method: To support the observations with chemical genotoxins, a radiation-induced model of DNA damage was also used. Endogenous HO-1 is induced early in response to IR or doxorubicin and its expression is sustained for 24-72 hours in the spleen, liver and kidney (FIGS. 7A-B). Kidneys and spleen were harvested after 2 hours after irradiation. To evaluate the role of exogenous CO, mice were pretreated with CO for 1 hour prior to either a lethal or sublethal dose of irradiation and then daily for 1 hour. Spleens and intestines of mice were pretreated with Air or CO (250 ppm) 1 hour prior lethal dose of irradiation (10 Gy) and treated daily with CO for 11 days. […] Tissues were harvested 2 hours after irradiation. To evaluate the role of H2AX signaling in CO effects on DNA repair, marginal bone marrow transplantation of BM cells from H2ax^−/− and H2ax^+/+ mice into wild type irradiated recipients was used. Mice were treated with CO prior lethal dose of irradiation (10 Gy) and thereafter after receiving BM.
# Male C57BL/6 mice 7-9 weeks of age were purchased from Jackson Laboratories (Bar Harbor, Me.). Mice were held under SPF conditions and the experiments were approved by the IACUC at BIDMC. Mice were irradiated with 10 Gy (lethal dose) or 5 Gy (sublethal dose) and the protocol was approved by Radiation Safety Officer at BIDMC and the IACUC. Mice were exposed in plexiglass chamber to CO for 1 hour, 250 ppm prior irradiation and thereafter every day for 1 hour.
# Mice were lethally irradiated and transplanted with […] i.v. immediately after irradiation. The amount of injected BM was sufficient for recovery of 40% mice.
# H2AXγ foci in tissues = assay: DNA damage (H2AXγ foci) in tissues of nude mice with PC3 tumors treated with doxorubicin ± CO; assay type: in vivo
# Method: Based on the effects observed in vitro, the salutary effects of CO were tested in an in vivo model of DNA damage in mice. Tissues were harvested 14 days after treatment of nude mice with established PC3 tumors (2 weeks) with […] (Control) or doxorubicin (8 mg/kg, twice per week, i.v.)±CO (daily, 1 hour, 250 ppm). Doxorubicin was employed to induce DNA damage in the tissues during chemotherapeutic treatment of tumor xenografts in nude mice.
# Nu/nu mice were purchased from Taconic (Hudson, N.Y.) at 7 weeks of age. Those mice were used in a complementary experiment of a subcutaneous tumor model of PC3 cells injected into the right flank of mice. Doxorubicin (8 mg/kg, Sigma) was given i.v. twice per week and mice were exposed to CO daily (250 ppm for 1 hour). Tissues were harvested after 2 weeks of treatment.
# HEK cells = assay: Immunoblot of DNA repair signaling after CO exposure; assay type: cell-based; settings: CO 250 ppm, 2 minutes to 1 h
# Method: as §2, §3
# HEK293 cells = assay: Western blot of DNA repair signaling in HEK293 cells treated with genotoxins; assay type: cell-based; settings: 2 min to 2 h
# Method: The direct effects of HO-1 was tested on signaling pathways in response to the DNA damaging agents, doxorubicin, camptothecin, or irradiation in loss and gain of function studies with HO-1. HEK293cells express high basal levels of HO-1 due to presence of large T antigen. HEK293 cells were transduced with micro-adapted shRNA to stably deplete HO-1 and then exposed to camptothecin, doxorubicin or irradiation. HEK293 cells with stable knockdown of HO-1 (mirHO-1) and control cells were treated with camptothecin (1 μg/ml) for 2′-2 h. The levels of HO-1 and DNA repair signaling proteins activation was measured by Western blot.
# The status of the major DNA repair kinases, ATR, and ATM and their downstream targets was evaluated in HEK293 cells treated with camptothecin.
# HEK mirHO-1 and control cells treated with doxorubicin (10 μg/ml) for 2′-2 h is shown. […] Akt is a loading control for the immunoblot for P-p53.
# [2] = test system: fibroblasts from Hmox1+/+ and Hmox1−/− mice; assay: H2AX phosphorylation / γ-H2AX foci in mouse fibroblasts treated with genotoxins; assay type: cell-based; settings: doxorubicin 10 μg/ml, camptothecin 1 μg/ml; for phosphorylation of histone H2AX and γ-H2AX foci: Hmox+/+ fibroblasts
# Method: Representative pictures are shown from at least two independent experiments in duplicates. Fibroblasts were treated with doxorubicin (10 μg/ml) for 2-4 hr.
# as §3
# [3] = CO 250 ppm 1 hour, harvested immediately, versus air
# [4] = CO 1 hour, harvested at 24 hours
smiles,measurement,setting,value
"C=CC1=C(C)/C(=C/C2=NC(=C\c3[nH]c(/C=C4\NC(=O)C(C)=C4C=C)c(C)c3CCC(=O)O)/C(CCC(=O)O)=C2C)NC1=O [Biliverdin, biliverdin]",number of GFP-positive cells (HR repair of DSB),U2OS-SCR reporter cells,no effect
O=C(NC(NC(=S)Nc1ccc(F)c([N+](=O)[O-])c1)C(Cl)(Cl)Cl)C(c1ccccc1)c1ccccc1 (centres unmarked) [CGK733],HO-1-induced HR (GFP-positive cells) in presence of inhibitor,"U2OS-SCR reporter cells; co-transfected with SceI and HO-1 for 24 hours, inhibitor applied following 24 hours",did not increase HR
same,CO-mediated HR (GFP-positive cells) under ATM/ATR blockade,U2OS-SCR reporter cells,significantly decreased
"[C-]#[O+] [CO, carbon monoxide]","NHEJ-mediated DNA repair, number of XHATM-resistant colonies",pPHW1 cells (NHEJ model),No effects
same,expression of p16 in intestines,[1]; [3],increases expression
same,expression of telomerase in lungs,[1]; [3],increases expression
same,expression of topoisomerase in intestines,[1]; [3],increases expression
same,expression of SIRT1 in the lung,[1]; [4],increased expression
same,expression of TERT in the lung,[1]; [4],increased expression
same,sustained H2AXγ foci formation in spleen and intestine,"irradiated mice; CO 250 ppm 1 hour prior to 10 Gy, then daily for 11 days",significant inhibition
same,"P-p53, P-Brca1, P-ATM and early P-H2AX in peripheral blood mononuclear cells and bone marrow","irradiated mice; CO 1 hour prior to irradiation, tissues harvested 2 hours after irradiation, versus air",strong induction
same,"survival rate, mice alive >10 days","irradiated mice; lethal irradiation, CO 250 ppm 1 hour prior and daily, n=6/group, p=0.031 versus air (50%)",80%
same,CO-mediated protection against irradiation-induced death with H2ax−/− donor BM,irradiated mice; marginal bone marrow transplantation into wild type recipients irradiated with 10 Gy,reversed
same,number of GFP-positive cells (HR repair of DSB),U2OS-SCR reporter cells,significantly increased
same,severity of doxorubicin-induced DNA damage (H2AXγ) in all organs,"H2AXγ foci in tissues; CO daily, 1 hour, 250 ppm, with doxorubicin",significantly decreased
same,"phosphorylation of Brca1, ATR and ATM",HEK cells,induced rapid phosphorylation
"COc1cccc2c1C(=O)c1c(O)c3c(c(O)c1C2=O)C[C@@](O)(C(=O)CO)C[C@@H]3O[C@H]1C[C@H](N)[C@H](O)[C@H](C)O1 [Doxorubicin, doxorubicin]","phosphorylation of ATM, p53 and H2AX","HEK293 cells; HEK293 cells, doxorubicin 10 μg/ml",increase
same,γ-H2AX foci formation,[2]; Hmox1−/− fibroblasts,no γ-H2AX foci formation
same,phosphorylation of histone H2AX and γ-H2AX foci,[2],strong increase
same,DNA damage by accumulation of H2AXγ foci,"H2AXγ foci in tissues; doxorubicin 8 mg/kg i.v. twice per week, 14 days, lung, liver, kidney and colon",substantial DNA damage
O=c1cc(-c2cccc3c2Sc2ccccc2S3)oc(N2CCOCC2)c1 [KU55933],CO-mediated HR (GFP-positive cells) under ATM/ATR blockade,U2OS-SCR reporter cells,significantly decreased
CC[C@@]1(O)C(=O)OCc2c1cc1n(c2=O)Cc2cc3ccccc3nc2-1 [camptothecin],phosphorylation of H2AX,"HEK293 cells; wild-type HEK293 cells, camptothecin 1 μg/ml",induced phosphorylation
same,phosphorylation of histone H2AX and γ-H2AX foci,[2],strong increase
